# Measurements taken from patent US20260053811A1, “METHODS OF TREATING HYPERTENSION IN OBESE SUBJECTS” (Mineralys Therapeutics, Inc., priority 2022, published 2026).
# System: hypertensive subjects
# Assay: 24-hour ambulatory blood pressure monitoring (ABPM), incl. nighttime dip
# Format: in vivo, human
# Description: Ambulatory blood pressure monitoring was accomplished with an ambulatory blood pressure monitoring device that consists of a blood pressure cuff worn on a subject's arm attached to a small recording device that is typically attached to the subject's belt or waistband.
# The ABPM device is worn for 24 hours. Throughout that period, the device records the subject's blood pressure at regular intervals, during the subject's routine daily activities and while they are sleeping. The ABPM thus provides a complete record of the subject's blood pressure over a 24-hour period.
# 24-hour ABPM was measured in the clinic at baseline and Study Week 7. If, for any reason, the ABPM procedure was deemed a failure at the end of Study Week 7, it may have been repeated at Study Week 8 and therefore no imputation was employed regardless of use of rescue medications. Additionally, ABPM was also collected at the end of Study Week 4 in Part 2. If a repeat test was performed, it supersedes the original test results for that visit.
# Specific derived variables based on ABPM measurements include mean 24-hour, mean Daytime, and mean Nighttime of SBP, DBP, and heart rate.
# Change from baseline to Week 7 in 24-hour mean SBP (and DBP) based on ABPM will be analyzed using an ANCOVA with a term for treatment group and a baseline mean 24-hour value as a covariate.
# The nighttime dip is defined as
# 100%×(mean daytime SBP−mean nighttime SBP)/mean daytime SBP
# It is expressed as a percentage and is summarized by treatment group and visit using descriptive statistics. In addition, the number and percentage of subjects with nighttime dip in each of the dipper categories (Bloomfield & Park, 2015) is presented by treatment group and visit. The categories are: • (a) <10% • (b) 10-20% inclusive • (c) >20%
# Secondary endpoints of this study were: • (a) Change in 24-hour ambulatory blood pressure monitoring (ABPM) parameters (systolic and diastolic) from baseline to the end of Study Week 7. • (b) Change in office-measured SBP from baseline to the end of Study Weeks 1, 2, 3, 4, 5, 6, and 7. • (c) Change in office-measured diastolic blood pressure (DBP) from baseline to the end of Study Weeks 1, 2, 3, 4, 5, 6, 7, and 8. • (d) Proportion of subjects who achieve office-measured BP of ≤130/80 mm Hg by the end of Study Week 8.
# [1] = 50 mg QD, End of Treatment, Part 1, FAS post-hoc
# [2] = 100 mg QD Part 2, End of Treatment, FAS post-hoc
# [3] = 100 mg QD, End of Treatment, Part 1, FAS post-hoc
smiles,measurement,setting,value
CC(=O)N[C@H]1CC[C@H](NC(=O)CN2CCN(c3nncc(-c4ccc(C)cc4)n3)CC2)CC1 [Compound A HBr],"LSM Δ with Placebo, 24-hr Mean MAP (ABPM, ANCOVA)",[1],−3.48 mmHg
same,"LSM Δ with Placebo, 24-hr SBP (ABPM, ANCOVA)",[1],−3.85 mmHg
same,"LSM Δ with Placebo, Daytime Mean DBP (ABPM, ANCOVA)",[1],−4.18 mmHg
same,"LSM Δ with Placebo, Daytime Mean SBP (ABPM, ANCOVA)",[1],−6.85 mmHg
same,"LSM Δ with Placebo, Mean Central DBP (ABPM, ANCOVA)",[1],−2.58 mmHg
same,"LSM Δ with Placebo, Mean Central Mean BP (ABPM, ANCOVA)",[1],−4.11 mmHg
same,"LSM Δ with Placebo, Mean Central SBP (ABPM, ANCOVA)",[1],−5.46 mmHg
same,"LSM Δ with Placebo, Nighttime Mean DBP (ABPM, ANCOVA)",[1],0.15 mmHg
same,"LSM Δ with Placebo, Nighttime Mean SBP (ABPM, ANCOVA)",[1],2.37 mmHg
same,"24-hr Mean DBP (ABPM), Mean (SD)","50 mg QD, EoT, Part 1, FAS",77.75 (9.33) mmHg
same,"24-hr Mean MAP (ABPM), Mean (SD)","50 mg QD, EoT, Part 1, FAS",104.55 (11.74) mmHg
same,"24-hr Mean SBP (ABPM), Mean (SD)","50 mg QD, EoT, Part 1, FAS",131.36 (15.58) mmHg
same,"Daytime Mean DBP (ABPM), Mean (SD)","50 mg QD, EoT, Part 1, FAS",79.50 (9.08) mmHg
same,"Daytime Mean SBP (ABPM), Mean (SD)","50 mg QD, EoT, Part 1, FAS",132.32 (14.36) mmHg
same,"Nighttime Mean DBP (ABPM), Mean (SD)","50 mg QD, EoT, Part 1, FAS",74.25 (13.08) mmHg
same,"Nighttime Mean SBP (ABPM), Mean (SD)","50 mg QD, EoT, Part 1, FAS",129.54 (21.68) mmHg
same,Subjects with nighttime dip 10-20% in 24-hour systolic ABPM,"50 mg QD, EoT, Part 1, FAS",6 (21.4) n (%)
same,Subjects with nighttime dip <10% in 24-hour systolic ABPM,"50 mg QD, EoT, Part 1, FAS",22 (78.6) n (%)
same,Subjects with nighttime dip >20% in 24-hour systolic ABPM,"50 mg QD, EoT, Part 1, FAS",0 n (%)
same,"24-hr Mean DBP (ABPM) CFB to EoT, Mean (SD)","50 mg QD, Part 1, FAS",−3.00 (8.52) mmHg
same,"24-hr Mean MAP (ABPM) CFB to EoT, Mean (SD)","50 mg QD, Part 1, FAS",−2.39 (11.80) mmHg
same,"24-hr Mean SBP (ABPM) CFB to EoT, Mean (SD)","50 mg QD, Part 1, FAS",−1.79 (15.82) mmHg
same,"Daytime Mean DBP (ABPM) CFB to EoT, Mean (SD)","50 mg QD, Part 1, FAS",−4.11 (6.81) mmHg
same,"Daytime Mean SBP (ABPM) CFB to EoT, Mean (SD)","50 mg QD, Part 1, FAS",−4.54 (13.59) mmHg
same,"Nighttime Mean DBP (ABPM) CFB to EoT, Mean (SD)","50 mg QD, Part 1, FAS",0.00 (12.34) mmHg
same,"Nighttime Mean SBP (ABPM) CFB to EoT, Mean (SD)","50 mg QD, Part 1, FAS",2.44 (22.25) mmHg
same,"LSM Δ with 100 mg QD Part 1, 24-hr Mean AP (ABPM, ANCOVA)",[2],3.33 mmHg
same,"LSM Δ with 100 mg QD Part 1, 24-hr Mean DBP (ABPM, ANCOVA)",[2],4.26 mmHg
same,"LSM Δ with 100 mg QD Part 1, 24-hr Mean SBP (ABPM, ANCOVA)",[2],4.13 mmHg
same,"LSM Δ with 100 mg QD Part 1, Daytime Mean DBP (ABPM, ANCOVA)",[2],3.92 mmHg
same,"LSM Δ with 100 mg QD Part 1, Daytime Mean SBP (ABPM, ANCOVA)",[2],1.64 mmHg
same,"LSM Δ with 100 mg QD Part 1, Mean Central DBP (ABPM, ANCOVA)",[2],4.53 mmHg
same,"LSM Δ with 100 mg QD Part 1, Mean Central Mean BP (ABPM, ANCOVA)",[2],3.98 mmHg
same,"LSM Δ with 100 mg QD Part 1, Mean Central SBP (ABPM, ANCOVA)",[2],4.68 mmHg
same,"LSM Δ with 100 mg QD Part 1, Nighttime Mean DBP (ABPM, ANCOVA)",[2],5.04 mmHg
same,"LSM Δ with 100 mg QD Part 1, Nighttime Mean SBP (ABPM, ANCOVA)",[2],8.91 mmHg
same,"LSM Δ with Placebo, 24-hr DBP (ABPM, ANCOVA)",[3],−5.23 mmHg
same,"LSM Δ with Placebo, 24-hr Mean MAP (ABPM, ANCOVA)",[3],−5.45 mmHg
same,"LSM Δ with Placebo, 24-hr SBP (ABPM, ANCOVA)",[3],−5.33 mmHg
same,"LSM Δ with Placebo, Daytime Mean DBP (ABPM, ANCOVA)",[3],−4.98 mmHg
same,"LSM Δ with Placebo, Daytime Mean SBP (ABPM, ANCOVA)",[3],−4.12 mmHg
same,"LSM Δ with Placebo, Mean Central DBP (ABPM, ANCOVA)",[3],−7.01 mmHg
same,"LSM Δ with Placebo, Mean Central Mean BP (ABPM, ANCOVA)",[3],−7.77 mmHg
same,"LSM Δ with Placebo, Mean Central SBP (ABPM, ANCOVA)",[3],−7.79 mmHg
same,"LSM Δ with Placebo, Nighttime Mean DBP (ABPM, ANCOVA)",[3],−5.68 mmHg
same,"LSM Δ with Placebo, Nighttime Mean SBP (ABPM, ANCOVA)",[3],−7.36 mmHg
same,"24-hr Mean DBP (ABPM), Mean (SD)","100 mg QD, EoT, Part 1, FAS",75.92 (8.42) mmHg
same,"24-hr Mean MAP (ABPM), Mean (SD)","100 mg QD, EoT, Part 1, FAS",105.48 (8.26) mmHg
same,"24-hr Mean SBP (ABPM), Mean (SD)","100 mg QD, EoT, Part 1, FAS",135.04 (11.25) mmHg
same,"Daytime Mean DBP (ABPM), Mean (SD)","100 mg QD, EoT, Part 1, FAS",78.79 (9.44) mmHg
same,"Daytime Mean SBP (ABPM), Mean (SD)","100 mg QD, EoT, Part 1, FAS",139.42 (11.65) mmHg
same,"Nighttime Mean DBP (ABPM), Mean (SD)","100 mg QD, EoT, Part 1, FAS",69.00 (9.04) mmHg
same,"Nighttime Mean SBP (ABPM), Mean (SD)","100 mg QD, EoT, Part 1, FAS",124.50 (14.93) mmHg
same,Subjects with nighttime dip 10-20% in 24-hour systolic ABPM,"100 mg QD, EoT, Part 1, FAS",11 (45.8) n (%)
same,Subjects with nighttime dip <10% in 24-hour systolic ABPM,"100 mg QD, EoT, Part 1, FAS",11 (45.8) n (%)
same,Subjects with nighttime dip >20% in 24-hour systolic ABPM,"100 mg QD, EoT, Part 1, FAS",2 (8.3) n (%)
same,"24-hr Mean DBP (ABPM), Mean","100 mg QD, EoT, Part 2, FAS",77.07 mmHg
same,"24-hr Mean MAP (ABPM), Mean","100 mg QD, EoT, Part 2, FAS",104.83 mmHg
same,"24-hr Mean SBP (ABPM), Mean","100 mg QD, EoT, Part 2, FAS",132.59 mmHg
same,"Daytime Mean DBP (ABPM), Mean","100 mg QD, EoT, Part 2, FAS",79.41 mmHg
same,"Daytime Mean SBP (ABPM), Mean","100 mg QD, EoT, Part 2, FAS",135.22 mmHg
same,"Nighttime Mean DBP (ABPM), Mean","100 mg QD, EoT, Part 2, FAS",71.85 mmHg
same,"Nighttime Mean SBP (ABPM), Mean","100 mg QD, EoT, Part 2, FAS",126.04 mmHg
same,"24-hr Mean DBP (ABPM) CFB to EoT, Mean (SD)","100 mg QD, Part 1, FAS",−5.92 (8.44) mmHg
same,"24-hr Mean MAP (ABPM) CFB to EoT, Mean (SD)","100 mg QD, Part 1, FAS",−7.40 (10.04) mmHg
same,"24-hr Mean SBP (ABPM) CFB to EoT, Mean (SD)","100 mg QD, Part 1, FAS",−8.88 (11.90) mmHg
same,"Daytime Mean DBP (ABPM) CFB to EoT, Mean (SD)","100 mg QD, Part 1, FAS",−4.96 (8.74) mmHg
same,"Daytime Mean SBP (ABPM) CFB to EoT, Mean (SD)","100 mg QD, Part 1, FAS",−7.08 (12.60) mmHg
same,"Nighttime Mean DBP (ABPM) CFB to EoT, Mean (SD)","100 mg QD, Part 1, FAS",−6.57 (9.97) mmHg
same,"Nighttime Mean SBP (ABPM) CFB to EoT, Mean (SD)","100 mg QD, Part 1, FAS",−11.48 (13.87) mmHg
same,"24-hr Mean DBP (ABPM) CFB to EoT, Mean","100 mg QD, Part 2, FAS",1.33 mmHg
same,"24-hr Mean MAP (ABPM) CFB to EoT, Mean","100 mg QD, Part 2, FAS",1.81 mmHg
same,"24-hr Mean SBP (ABPM) CFB to EoT, Mean","100 mg QD, Part 2, FAS",2.30 mmHg
same,"Daytime Mean DBP (ABPM) CFB to EoT, Mean","100 mg QD, Part 2, FAS",1.67 mmHg
same,"Daytime Mean SBP (ABPM) CFB to EoT, Mean","100 mg QD, Part 2, FAS",2.41 mmHg
same,"Nighttime Mean DBP (ABPM) CFB to EoT, Mean","100 mg QD, Part 2, FAS",1.04 mmHg
same,"Nighttime Mean SBP (ABPM) CFB to EoT, Mean","100 mg QD, Part 2, FAS",1.52 mmHg
same,"Change in BP, ABPM (night) BPsys, Mean (sem)","100 mg QD, Week 8, FAS",−11.5 (2.5) mmHg
same,Proportion of Subjects with Nighttime Dip in 24-hour Systolic Ambulatory Blood Pressure 10-20%,"Part 2, 100 mg QD, EoT",(33.3) %
same,Proportion of Subjects with Nighttime Dip in 24-hour Systolic Ambulatory Blood Pressure <10%,"Part 2, 100 mg QD, EoT",(66.7) %
same,Proportion of Subjects with Nighttime Dip in 24-hour Systolic Ambulatory Blood Pressure 10-20%,"Part 2, 100 mg QD, Week 4",(24.0) %
same,Proportion of Subjects with Nighttime Dip in 24-hour Systolic Ambulatory Blood Pressure <10%,"Part 2, 100 mg QD, Week 4",(72.0) %
same,Proportion of Subjects with Nighttime Dip in 24-hour Systolic Ambulatory Blood Pressure >20%,"Part 2, 100 mg QD, Week 4",(4.0) %
